Patent US6670487B1, “Method for removing impurities from oxidation products” (General Electric Company, priority 2002, dated 2003)

Legend:
[1] = Solvent extraction of aqueous crude chlorophthalic acid solution: distribution coefficient K and selectivity beta of chlorophthalides; type: physicochemical; set-up: key to K values: K = chlorophthalide mass fraction organic phase / aqueous phase; key to beta values: beta = (phthalide/acid wt fraction, organic) ÷ (same ratio, water)
Description: In one embodiment the efficacy of a solvent extraction may be measured by the distribution coefficient, K, which is the mole fraction of specified solute in the organic solvent phase compared to the mole fraction of specified solute in the aqueous phase. In some particular embodiments an organic solvent is employed such that the value of the distribution coefficient, K, for phthalide in a product mixture comprising at least one phthalic acid is greater than 1. In other particular embodiments an organic solvent is employed such that the value of the distribution coefficient, K, for chlorophthalide in a product mixture comprising at least one chlorophthalic acid is greater than 1. In various particular embodiments an organic solvent is employed such that the value of the distribution coefficient, K, for chlorophthalide is in one embodiment in a range of between about 1.1 and about 5, and in another embodiment in a range of between about 1.1 and about 4. In a particular embodiment the distribution coefficient is measured for 4-chlorophthalide with water and various organic solvents such as toluene and xylene.
Another factor for measuring the efficacy of a solvent extraction is the selectivity factor, β, which compares the ratio of two components of interest in one phase to the ratio of the same two components in the other phase. In a particular embodiment the selectivity factor is measured for 4-chlorophthalide in relation to chlorophthalic acids in both water and organic solvent.
A 35 wt. % solution of crude chlorophthalic acid in water was prepared by adding appropriate amounts of 4- and 3-chlorophthalic anhydride (70/30 isomer ratio) along with a mixture of about 3 wt. % (based on crude chlorophthalic anhydride) of synthetic 4- and 7-chlorophthalide (produced by reduction of 3-chlorophthalic anhydride). […] A number of vials were prepared each containing 5 milliliters (ml.) of an aqueous phase comprising a certain concentration of crude chlorophthalic acid (5 wt. % to 35 wt. %, based on the weight of the entire aqueous phase and, optionally, acetic acid (0 wt. % to 36 wt. %, based on the weight of the entire aqueous phase). Each vial was then treated with 5 ml. of either toluene, o-dichlorobenzene (ODCB), or ortho-xylene. The vials were then shaken vigorously in a mechanical shaker for 50 minutes at a specified temperature (22° C., 42° C., or 60° C.). The phases were allowed to separate over several hours (actual phase separation occurred much quicker than this) and then each phase was sampled using a pipette. No stable emulsions were observed under the conditions which were examined. The organic phase was analyzed directly by GC (using biphenyl internal standard, following silylation of the product mixture), while for the aqueous phase, water was evaporated and solid residue was redissolved in organic solvent before GC analysis. The analytical data were used to calculate an equilibrium constant, K, which represented the ratio of chlorophthalides mass fraction in the organic phase to that in the aqueous phase. The analytical data were also used to calculate a selectivity constant, beta, which represented the quotient of [(wt. fraction of chlorophthalides in xylene)/(wt fraction of chlorophthalic acids in xylene)] divided by the quotient of [(wt fraction of chlorophthalides in water)/(wt fraction of chlorophthalic acids in water)]. The data in Table 1 show results of extractions performed at 22° C. with no acetic acid present.
The Procedure of Example 1 was repeated except that extractions were performed at 22 wt. % initial chlorophthalic acid concentration at 22° C. in the presence of different levels of acetic acid.
The procedure of Example 1 was repeated except that extractions were performed at different wt. % initial chlorophthalic acid concentration at 60° C. with no acetic acid present. […]

[2] = as above; type: physicochemical; set-up: key to K values: K = chlorophthalide mass fraction organic phase / aqueous phase; key to beta values: beta = (phthalide/acid wt fraction, organic) ÷ (same ratio, water); settings: 22 wt.% chlorophthalic acid, 60° C.
[3] = ODCB/water, 9 wt.% acetic acid in initial aqueous phase, 22 wt.% chlorophthalic acid, 22° C.
[4] = ODCB/water, 10 wt.% acetic acid in initial aqueous phase, 22 wt.% chlorophthalic acid, 60° C.
[5] = ODCB/water, 12 wt.% chlorophthalic acid in aqueous phase, 22° C., no acetic acid
[6] = ODCB/water, 17 wt.% acetic acid in initial aqueous phase, 22 wt.% chlorophthalic acid, 22° C.
[7] = ODCB/water, 19 wt.% acetic acid in initial aqueous phase, 22 wt.% chlorophthalic acid, 60° C.
[8] = ODCB/water, 22 wt.% chlorophthalic acid in aqueous phase, 60° C., no acetic acid
[9] = ODCB/water, 23 wt.% chlorophthalic acid in aqueous phase, 22° C., no acetic acid
[10] = ODCB/water, 26 wt.% acetic acid in initial aqueous phase, 22 wt.% chlorophthalic acid, 22° C.
[11] = ODCB/water, 35 wt.% acetic acid in initial aqueous phase, 22 wt.% chlorophthalic acid, 22° C.
[12] = ODCB/water, 35 wt.% chlorophthalic acid in aqueous phase, 22° C., no acetic acid
[13] = ODCB/water, 35 wt.% chlorophthalic acid in aqueous phase, 60° C., no acetic acid
[14] = toluene/water, 12 wt.% chlorophthalic acid in aqueous phase, 22° C., no acetic acid
[15] = toluene/water, 17 wt.% acetic acid in initial aqueous phase, 22 wt.% chlorophthalic acid, 22° C.
[16] = toluene/water, 22 wt.% chlorophthalic acid in aqueous phase, 60° C., no acetic acid
[17] = toluene/water, 23 wt.% chlorophthalic acid in aqueous phase, 22° C., no acetic acid
[18] = toluene/water, 26 wt.% acetic acid in initial aqueous phase, 22 wt.% chlorophthalic acid, 22° C.
[19] = toluene/water, 35 wt.% chlorophthalic acid in aqueous phase, 22° C., no acetic acid
[20] = toluene/water, 35 wt.% chlorophthalic acid in aqueous phase, 60° C., no acetic acid
[21] = toluene/water, 36 wt.% acetic acid in initial aqueous phase, 22 wt.% chlorophthalic acid, 22° C.
[22] = xylene/water, 12 wt.% chlorophthalic acid in aqueous phase, 22° C., no acetic acid
[23] = xylene/water, 23 wt.% chlorophthalic acid in aqueous phase, 22° C., no acetic acid
[24] = xylene/water, 35 wt.% chlorophthalic acid in aqueous phase, 22° C., no acetic acid

“4- and 7-chlorophthalide [chlorophthalides]” gave a K values ([1]; ODCB/water, 5.5 wt.% chlorophthalic acid in aqueous phase, 22° C., no acetic acid) of 1.1, a beta values ([1]; ODCB/water, 5.5 wt.% chlorophthalic acid in aqueous phase, 22° C., no acetic acid, chlorophthalides vs chlorophthalic acids) of 400 and a K values [1, 3] of 2.3. The beta values [1, 3] was 200, the K values [1, 4] was 3.1 and the beta values [1, 4] was 600. The K values [1, 5] was 1.8, the beta values [1, 5] was 800 and the K values [1, 6] was 2.2. The beta values [1, 6] was 200, the K values [1, 7] was 2.5 and the beta values [1, 7] was 300. The K values [1, 8] was 2.8, the beta values [1, 8] was 800 and the K values [1, 9] was 2.2. It also gave a beta values [1, 9] of 300, a K values [1, 10] of 1.9 and a beta values [1, 10] of 100. It also gave a K values ([1]; ODCB/water, 29 wt.% acetic acid in initial aqueous phase, 22 wt.% chlorophthalic acid, 60° C.) of 2.3, a K values [1, 11] of 1.7 and a beta values [1, 11] of 100. For the same substance, the K values [1, 12] was 1.4, the beta values [1, 12] was 260 and the K values [1, 13] was 1.7. For the same substance, the beta values [1, 13] was 800, the beta values ([1]; ODCB/water, 37 wt.% acetic acid in initial aqueous phase, 22 wt.% chlorophthalic acid, 60° C.) was 100 and the “values for K” value ([1]; acetic acid 0-35 wt.% based on the weight of the water, 22 wt.% solids) was 1.7-2.6. The “selectivity numbers for chlorophthalic acids and chlorophthalide” value ([1]; o-dichlorobenzene, chlorophthalic acids about 20 wt.%, chlorophthalide about 0.6%) was about 500, the “selectivity numbers for chlorophthalic acids and chlorophthalide” value ([1]; toluene and xylene, chlorophthalic acids about 20 wt.%, chlorophthalide about 0.6%) was 4000-5000 and the “values of K” value ([1]; toluene, xylene and o-dichlorobenzene, chlorophthalic acids about 20 wt.%, chlorophthalide about 0.6%) was 1.5-2.5. The K values ([1]; toluene/water, 6 wt.% chlorophthalic acid in aqueous phase, 22° C., no acetic acid) was 1.8, the beta values ([1]; toluene/water, 6 wt.% chlorophthalic acid in aqueous phase, 22° C., no acetic acid, chlorophthalides vs chlorophthalic acids) was 800 and the beta values ([1]; toluene/water, 10 wt.% acetic acid in initial aqueous phase, 22 wt.% chlorophthalic acid, 60° C.) was 900. It also gave a K values [1, 14] of 2.6, a beta values [1, 14] of 2500 and a K values [1, 15] of 2.5. For the same substance, the beta values [1, 15] was 400, the K values ([1]; toluene/water, 19 wt.% acetic acid in initial aqueous phase, 22 wt.% chlorophthalic acid, 60° C.) was 2.9 and the K values [1, 16] was 3.5. The beta values [1, 16] was 1800, the K values [1, 17] was 2.5 and the beta values [1, 17] was 3900. For the same substance, the K values [1, 18] was 2.2, the beta values [1, 18] was 150 and the K values ([1]; toluene/water, 29 wt.% acetic acid in initial aqueous phase, 22 wt.% chlorophthalic acid, 60° C.) was 2.4. For the same substance, the K values [1, 19] was 1.7, the beta values [1, 19] was 3400 and the K values [1, 20] was 2.0. For the same substance, the beta values [1, 20] was 1400, the K values [1, 21] was 1.9 and the beta values [1, 21] was 100. For the same substance, the beta values ([1]; toluene/water, 38 wt.% acetic acid in initial aqueous phase, 22 wt.% chlorophthalic acid, 60° C.) was 50, the selectivity numbers ([1]; toluene, 0 wt.% acetic acid, 22 wt.% solids) was 4000 and the selectivity numbers ([1]; toluene, 18 wt.% acetic acid, 22 wt.% solids) was “about 400”. It also gave a K values [1, 22] of 2.5, a beta values [1, 22] of 3500 and a K values [1, 23] of 1.8. It also gave a beta values [1, 23] of 4700, a K values [1, 24] of 1.3 and a beta values [1, 24] of 4200. For the same substance, the beta values ([2]; ODCB/water, 29 wt.% acetic acid in initial aqueous phase) was 150, the K values ([2]; ODCB/water, 37 wt.% acetic acid in initial aqueous phase) was 1.7 and the K values ([2]; toluene/water, 10 wt.% acetic acid in initial aqueous phase) was 3.3. It also gave a beta values ([2]; toluene/water, 19 wt.% acetic acid in initial aqueous phase) of 300, a beta values ([2]; toluene/water, 29 wt.% acetic acid in initial aqueous phase) of 150 and a K values ([2]; toluene/water, 38 wt.% acetic acid in initial aqueous phase) of 1.6.
